The results in this text go back to US8049015B2 (Panmira Pharmaceuticals, LLC, priority 2008, dated 2011).

pIC50: −log10 of the molar value.

This assay has as its target T1, human DP2 receptor (Homo sapiens, UniProt Q9Y5Y4).
T1 construct: expressed in transfected cells
T1 sequence (Q9Y5Y4 1-395): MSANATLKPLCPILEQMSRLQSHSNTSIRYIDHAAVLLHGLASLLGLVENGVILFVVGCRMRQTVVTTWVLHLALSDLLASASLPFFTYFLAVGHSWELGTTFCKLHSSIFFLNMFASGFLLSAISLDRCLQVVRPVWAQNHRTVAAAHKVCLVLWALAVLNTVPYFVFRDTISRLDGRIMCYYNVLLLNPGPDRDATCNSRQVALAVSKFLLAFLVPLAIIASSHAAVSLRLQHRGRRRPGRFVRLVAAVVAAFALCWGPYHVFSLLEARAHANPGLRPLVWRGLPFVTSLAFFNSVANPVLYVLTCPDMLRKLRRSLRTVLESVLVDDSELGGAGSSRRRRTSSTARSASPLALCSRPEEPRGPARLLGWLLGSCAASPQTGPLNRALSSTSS
The assay is described as follows: DP2/CRTH2 binding assay (radioligand binding with [3H]PGD2). As to conditions: [3H]PGD2 binding, membranes of HEK293 cells expressing recombinant human DP2; read-out: hDP2. As to the method:
The ability of a compound to bind to the human DP2 receptor is assessed via a radioligand binding assay using [^3H]PGD2. HEK293 cells stably expressing recombinant human DP2 are resuspended in 10 mM Hepes, 7.4 containing 1 mM DTT, lysed and centrifuged at 75,000×g to pellet the membranes. The membranes are resuspended in 10 mM Hepes, 7.4 containing 1 mM DTT and 10% glycerol to approximately 5 mg protein/ml. Membranes (2-10 μg protein/well) are incubated in 96-well plates with 1 nM [^3H]PGD2 and test compound in Assay Buffer (50 mM Hepes, 10 mM MnCl2, 1 mM EDTA, plus or minus 0.2% human serum albumin, pH 7.4) for 60 minutes at room temperature. The reactions are terminated by rapid filtration through Whatman GF/C glass fibre filter plates. The filter plates were pre-soaked in 0.33% polythylenimine for 30 minutes at room temperature then washed in Wash Buffer (50 mM Hepes, 0.5 M NaCl pH 7.4) prior to harvesting. After harvesting, the filter plates are washed 3 times with 1 ml cold Wash Buffer then dried. Scintillant is then added to the plates and the radioactivity retained on the filters is determined on a Packard TopCount (Perkin Elmer). Specific binding is determined as total radioactive binding minus non-specific binding in the presence of 10 μM PGD2. IC50s were determined using GraphPad prism analysis of drug titration curves.

With `CCOC(=O)N(CC)Cc1cc(C(F)(F)F)ccc1-c1cc(CC(=O)O)cnc1OC` [Compound 43, (5-{2-[(N-Ethoxycarbonyl-N-ethyl-amino)-methyl]-4-trifluoromethyl-phenyl}-6-methoxy-pyridin-3-yl)-acetic acid], the pIC50 was above 6.52.

In the case of `O=C(O)CCn1c2c(c3ccccc31)C[C@H](NS(=O)(=O)c1ccc(F)cc1)CC2` [Ramatroban, reference compound], the pIC50 was 6.00 to 6.52.
